How the values were obtained:
Tyk2 = molecular target: T1, Tyk2 (Homo sapiens, UniProt P29597); assay: Biochemical JAK kinase assay (LanthaScreen), Tyk2; details: converted from pIC50 by Cheng-Prusoff; 10 μM ATP; read-out: Tyk 2 pKi (converted)
T1 construct: GST; purchased Life Technologies
Experimental: (§1) A panel of four LanthaScreen JAK biochemical assays (JAK1, 2, 3 and Tyk2) were carried in a common kinase reaction buffer (50 mM HEPES, pH 7.5, 0.01% Brij-35, 10 mM MgCl2, and 1 mM EGTA). Recombinant GST-tagged JAK enzymes and a GFP-tagged STAT1 peptide substrate were obtained from Life Technologies.
(§2) Serially diluted compound was pre-incubated with each of the four JAK enzymes and the substrate in white 384-well microplates (Corning) at ambient temperature for 1 h. ATP was subsequently added to initiate the kinase reactions in 10 μL total volume, with 1% DMSO. […] The plates were allowed to incubate at ambient temperature for 1 h before being read on the EnVision reader (Perkin Elmer). Emission ratio signals (520 nm/495 nm) were recorded and utilized to calculate the percent inhibition values based on DMSO and background controls.
(§3) For dose-response analysis, percent inhibition data were plotted vs. compound concentrations, and IC50 values were determined from a 4-parameter robust fit model with the Prism software (GraphPad Software). Results were expressed as pIC50 (negative logarithm of IC50) and subsequently converted to pKi (negative logarithm of dissociation constant, Ki) using the Cheng-Prusoff equation.

CDK9 = molecular target: T2, CDK9 (Homo sapiens, UniProt P50750); assay: Kinome screen, CDK9; assay type: binding; details: screened at 1 μM
T2 construct: made in house; host or cells: E. coli BL21-derived host (T7 phage) or HEK-293 cells
T2 sequence (P50750 whole entry): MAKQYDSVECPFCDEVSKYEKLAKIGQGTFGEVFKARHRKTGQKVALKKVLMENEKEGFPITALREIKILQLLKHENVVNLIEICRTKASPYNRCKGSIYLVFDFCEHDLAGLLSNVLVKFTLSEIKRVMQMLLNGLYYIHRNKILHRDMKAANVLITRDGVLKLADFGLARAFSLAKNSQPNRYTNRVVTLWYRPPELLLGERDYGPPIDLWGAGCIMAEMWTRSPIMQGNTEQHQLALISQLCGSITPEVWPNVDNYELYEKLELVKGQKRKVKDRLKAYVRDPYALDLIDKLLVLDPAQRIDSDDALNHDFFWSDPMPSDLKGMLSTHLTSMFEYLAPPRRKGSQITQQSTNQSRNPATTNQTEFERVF
Experimental: (§4) Compounds 1 and C-1 were screened against other kinases to evaluate their selectivity profile.
(§5) Kinase-tagged T7 phage strains were grown in parallel in 24-well blocks in an E. coli host derived from the BL21 strain. E. coli were grown to log-phase and infected with T7 phage from a frozen stock (multiplicity of infection=0.4) and incubated with shaking at 32° C. until lysis (90-150 minutes). The lysates were centrifuged (6,000×g) and filtered (0.2 μm) to remove cell debris. The remaining kinases were produced in HEK-293 cells and subsequently tagged with DNA for qPCR detection.
(§6) Streptavidin-coated magnetic beads were treated with biotinylated small molecule ligands for 30 minutes at room temperature to generate affinity resins for kinase assays. The liganded beads were blocked with excess biotin and washed with blocking buffer (SeaBlock (Pierce), 1% BSA, 0.05% Tween 20, 1 mM DTT) to remove unbound ligand and to reduce non-specific phage binding. Binding reactions were assembled by combining kinases, liganded affinity beads, and test compounds in 1× binding buffer (20% SeaBlock, 0.17×PBS, 0.05% Tween 20, 6 mM DTT). Test compounds were prepared as 40× stocks in 100% DMSO and directly diluted into the assay. All reactions were performed in polypropylene 384-well plates in a final volume of 0.04 ml. […] The kinase concentration in the eluates was measured by qPCR. […]

AURKA = molecular target: T3, AURKA (Homo sapiens, UniProt O14965); assay: Kinome screen, AURKA; assay type: binding; details: screened at 1 μM
T3 construct: made in house; host or cells: E. coli BL21-derived host (T7 phage) or HEK-293 cells
T3 sequence (O14965 whole entry): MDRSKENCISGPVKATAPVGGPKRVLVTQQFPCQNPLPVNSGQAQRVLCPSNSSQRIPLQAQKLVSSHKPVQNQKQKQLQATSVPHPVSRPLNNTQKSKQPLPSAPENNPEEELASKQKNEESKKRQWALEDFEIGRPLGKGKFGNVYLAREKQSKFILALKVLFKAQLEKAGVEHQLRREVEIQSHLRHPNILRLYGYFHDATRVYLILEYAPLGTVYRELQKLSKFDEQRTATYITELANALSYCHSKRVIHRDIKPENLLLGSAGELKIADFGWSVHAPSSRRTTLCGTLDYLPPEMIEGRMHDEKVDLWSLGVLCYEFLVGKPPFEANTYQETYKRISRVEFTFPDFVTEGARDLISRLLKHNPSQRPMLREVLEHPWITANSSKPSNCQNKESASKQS
Experimental: as §4, §5, §6

[1] = test system: IL-2/anti-CD3 stimulated STAT5 phosphorylation in CD4+ T cells in human PBMCs; assay: Inhibition of IL-2 stimulated pSTAT5 in CD4+ T cells; assay type: cell-based; details: 0.5 h, 30 min stimulation, flow cytometry, read-out: pIC50, inhibition of IL-2 stimulated pSTAT5 in CD4+ T cells (converted)
Experimental: The potency of the test compound for inhibition of interleukin-2 (IL-2)/anti-CD3 stimulated STAT5 phosphorylation was measured in CD4-positive (CD4+) T cells in human peripheral blood mononuclear cells (PBMCs) isolated from human whole blood (Stanford Blood Center) using flow cytometry. Because IL-2 signals through JAK, this assay provides a measure of JAK cellular potency.
CD4+ T cells were identified using a […] (PE) conjugated anti-CD4 antibody (Clone RPA-T4, BD Biosciences), while an Alexa Fluor 647 conjugated anti-pSTAT5 antibody (pY694, Clone 47, BD Biosciences) was used to detect STAT5 phosphorylation. […]
(2) After cytokine stimulation, cells were fixed with pre warmed fix solution (200 μL; BD Biosciences) for 10 min at 37° C., 5% CO2, washed twice with DPBS buffer (1 mL, Life Technologies), and resuspended in ice cold Perm Buffer III (1000 μL, BD Biosciences) for 30 min at 4° C. […] After incubation, cells were washed twice in FACS buffer before being analyzed using a LSRII flow cytometer (BD Biosciences). To determine the inhibitory potency of the test compound in response to IL-2/anti-CD3, the median fluorescent intensity (MFI) of pSTAT5 was measured in CD4+ T cells. IC50 values were determined from analysis of the inhibition curves of MFI vs compound concentration.
Data are expressed as pIC50 (negative decadic logarithm IC50) values.

JAK2 = molecular target: T4, JAK2 (Homo sapiens, UniProt O60674); assay: Biochemical JAK kinase assay (LanthaScreen), JAK2; details: converted from pIC50 by Cheng-Prusoff; 3 μM ATP; read-out: JAK 2 pKi (converted)
T4 construct: GST; purchased Life Technologies
T4 sequence (O60674 whole entry): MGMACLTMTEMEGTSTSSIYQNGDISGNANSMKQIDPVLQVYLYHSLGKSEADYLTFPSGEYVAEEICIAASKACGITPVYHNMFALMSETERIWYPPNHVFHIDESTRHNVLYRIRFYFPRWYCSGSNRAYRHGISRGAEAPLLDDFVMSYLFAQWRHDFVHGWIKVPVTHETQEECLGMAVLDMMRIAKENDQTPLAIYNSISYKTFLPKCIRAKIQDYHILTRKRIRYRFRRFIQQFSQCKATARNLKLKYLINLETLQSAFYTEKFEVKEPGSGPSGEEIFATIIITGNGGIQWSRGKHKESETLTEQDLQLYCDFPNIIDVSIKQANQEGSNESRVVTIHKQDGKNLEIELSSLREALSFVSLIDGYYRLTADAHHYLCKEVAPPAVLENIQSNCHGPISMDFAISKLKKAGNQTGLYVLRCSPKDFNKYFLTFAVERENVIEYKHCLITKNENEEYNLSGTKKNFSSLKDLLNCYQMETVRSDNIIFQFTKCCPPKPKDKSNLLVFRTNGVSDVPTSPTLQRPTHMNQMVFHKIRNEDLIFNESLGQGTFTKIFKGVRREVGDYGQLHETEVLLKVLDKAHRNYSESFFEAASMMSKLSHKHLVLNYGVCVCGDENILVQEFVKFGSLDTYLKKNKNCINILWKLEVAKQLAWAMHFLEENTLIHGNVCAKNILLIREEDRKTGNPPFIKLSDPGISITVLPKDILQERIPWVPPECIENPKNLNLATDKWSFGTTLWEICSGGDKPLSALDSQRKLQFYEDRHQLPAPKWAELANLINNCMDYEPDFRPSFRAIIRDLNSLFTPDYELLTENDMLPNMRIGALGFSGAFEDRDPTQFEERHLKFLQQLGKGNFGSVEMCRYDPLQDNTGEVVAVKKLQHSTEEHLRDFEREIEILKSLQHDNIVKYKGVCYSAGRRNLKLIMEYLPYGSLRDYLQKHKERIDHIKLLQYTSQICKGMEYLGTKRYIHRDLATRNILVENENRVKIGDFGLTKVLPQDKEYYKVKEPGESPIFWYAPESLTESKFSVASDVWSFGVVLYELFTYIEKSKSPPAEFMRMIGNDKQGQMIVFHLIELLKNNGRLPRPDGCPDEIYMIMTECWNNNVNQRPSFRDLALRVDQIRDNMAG
Experimental: as §1, §2, §3

JAK3 = molecular target: T5, JAK3 (Homo sapiens, UniProt P52333); assay: Biochemical JAK kinase assay (LanthaScreen), JAK3; details: converted from pIC50 by Cheng-Prusoff; 1.6 μM ATP; read-out: JAK 3 pKi (converted)
T5 construct: GST; purchased Life Technologies
T5 sequence (P52333 whole entry): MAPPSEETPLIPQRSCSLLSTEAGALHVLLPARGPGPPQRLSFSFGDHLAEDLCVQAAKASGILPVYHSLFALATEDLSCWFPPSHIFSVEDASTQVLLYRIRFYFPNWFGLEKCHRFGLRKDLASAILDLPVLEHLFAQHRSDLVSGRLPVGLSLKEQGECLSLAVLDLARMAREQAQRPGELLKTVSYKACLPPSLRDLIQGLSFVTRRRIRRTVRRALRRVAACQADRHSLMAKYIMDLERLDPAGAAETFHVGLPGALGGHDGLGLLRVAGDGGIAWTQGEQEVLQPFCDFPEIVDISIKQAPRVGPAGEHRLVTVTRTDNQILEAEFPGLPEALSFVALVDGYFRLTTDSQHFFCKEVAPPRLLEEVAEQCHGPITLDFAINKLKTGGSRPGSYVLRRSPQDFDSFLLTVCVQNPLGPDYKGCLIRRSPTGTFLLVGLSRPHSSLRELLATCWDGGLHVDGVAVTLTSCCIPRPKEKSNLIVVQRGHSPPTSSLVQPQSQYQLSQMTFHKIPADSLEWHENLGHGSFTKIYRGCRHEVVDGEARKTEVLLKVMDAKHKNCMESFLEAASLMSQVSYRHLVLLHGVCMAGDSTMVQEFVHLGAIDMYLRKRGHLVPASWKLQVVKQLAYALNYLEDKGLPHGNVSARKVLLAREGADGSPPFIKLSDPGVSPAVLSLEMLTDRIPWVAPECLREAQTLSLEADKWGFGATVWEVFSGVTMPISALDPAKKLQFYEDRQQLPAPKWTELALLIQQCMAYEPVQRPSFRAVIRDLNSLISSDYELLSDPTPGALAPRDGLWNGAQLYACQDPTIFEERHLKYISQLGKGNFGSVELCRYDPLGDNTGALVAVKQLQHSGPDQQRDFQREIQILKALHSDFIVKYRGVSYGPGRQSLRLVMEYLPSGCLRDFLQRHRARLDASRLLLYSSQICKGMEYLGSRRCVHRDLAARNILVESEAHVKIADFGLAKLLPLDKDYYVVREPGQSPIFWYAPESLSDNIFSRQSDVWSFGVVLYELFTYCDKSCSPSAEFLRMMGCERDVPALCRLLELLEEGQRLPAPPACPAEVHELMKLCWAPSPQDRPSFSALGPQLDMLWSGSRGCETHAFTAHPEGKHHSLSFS
Experimental: as §1, §2, §3

T1 sequence (P29597 whole entry): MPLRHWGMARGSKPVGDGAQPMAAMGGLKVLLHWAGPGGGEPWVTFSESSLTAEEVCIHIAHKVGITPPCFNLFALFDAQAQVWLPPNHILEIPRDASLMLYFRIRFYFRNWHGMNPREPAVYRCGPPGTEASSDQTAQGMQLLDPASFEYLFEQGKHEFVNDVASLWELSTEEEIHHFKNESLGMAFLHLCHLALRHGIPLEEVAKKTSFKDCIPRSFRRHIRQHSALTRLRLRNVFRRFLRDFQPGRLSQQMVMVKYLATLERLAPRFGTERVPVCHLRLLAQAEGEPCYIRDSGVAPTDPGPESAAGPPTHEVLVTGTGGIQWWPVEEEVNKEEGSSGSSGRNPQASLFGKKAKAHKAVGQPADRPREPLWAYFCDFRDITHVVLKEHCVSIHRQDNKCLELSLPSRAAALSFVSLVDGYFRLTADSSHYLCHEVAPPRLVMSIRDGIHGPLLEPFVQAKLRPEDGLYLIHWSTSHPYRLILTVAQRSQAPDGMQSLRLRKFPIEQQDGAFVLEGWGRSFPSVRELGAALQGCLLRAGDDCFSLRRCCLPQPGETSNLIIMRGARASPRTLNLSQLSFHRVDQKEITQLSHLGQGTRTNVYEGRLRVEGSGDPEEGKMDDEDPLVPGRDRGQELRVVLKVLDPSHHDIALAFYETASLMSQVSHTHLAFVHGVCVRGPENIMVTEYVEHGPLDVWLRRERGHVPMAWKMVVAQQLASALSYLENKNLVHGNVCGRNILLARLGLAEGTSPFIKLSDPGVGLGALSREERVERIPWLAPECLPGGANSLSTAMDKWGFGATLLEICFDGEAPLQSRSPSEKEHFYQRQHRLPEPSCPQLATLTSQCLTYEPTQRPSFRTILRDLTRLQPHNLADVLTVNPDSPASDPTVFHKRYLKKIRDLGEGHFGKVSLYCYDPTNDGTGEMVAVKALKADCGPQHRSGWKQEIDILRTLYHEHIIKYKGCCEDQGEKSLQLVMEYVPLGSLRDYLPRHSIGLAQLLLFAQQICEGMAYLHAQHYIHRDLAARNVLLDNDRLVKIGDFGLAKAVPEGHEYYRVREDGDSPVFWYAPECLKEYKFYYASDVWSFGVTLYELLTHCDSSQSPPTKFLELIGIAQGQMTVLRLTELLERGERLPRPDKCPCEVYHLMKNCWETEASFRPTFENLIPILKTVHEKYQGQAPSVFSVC

CCc1cc(O)c(F)cc1-c1cc(F)c2c(-c3nc4c([nH]3)CCN(C(=O)[C@]35C[C@H]3CCN5)C4)n[nH]c2c1 [Compound 1, (1S,5R)-2-azabicyclo[3.1.0]hexan-1-yl(2-(6-(2-ethyl-5-fluoro-4-hydroxyphenyl)-4-fluoro-1H-indazol-3-yl)-6,7-dihydro-3H-imidazo[4,5-c]pyridin-5(4H)-yl)methanone]
Ki (Tyk2): 2.51 nM
inhibition at 1 µM (CDK9): 13%
inhibition at 1 µM (AURKA): 26%
IC50 [1]: 20 nM
Ki (JAK2): 0.0631 nM
Ki (JAK3): 0.251 nM
